ChEMBL document CHEMBL3351764, “Design, synthesis and biological activity of flavonoid derivatives as selective agonists for neuromedin U 2 receptor” (Bioorg Med Chem, 2014)
The source made the active and inactive calls.

What was measured:
[1] = biological target: D(1A) dopamine receptor (Homo sapiens) (UniProt P21728); assay: Agonist activity at human D1 receptor at 100 uM to 5 mM
[2] = biological target: T1, Neuropeptide Y receptor type 5 (Homo sapiens) (UniProt Q15761); assay: Agonist activity at human NPY5 receptor at 100 uM to 5 mM
T1 sequence (whole entry): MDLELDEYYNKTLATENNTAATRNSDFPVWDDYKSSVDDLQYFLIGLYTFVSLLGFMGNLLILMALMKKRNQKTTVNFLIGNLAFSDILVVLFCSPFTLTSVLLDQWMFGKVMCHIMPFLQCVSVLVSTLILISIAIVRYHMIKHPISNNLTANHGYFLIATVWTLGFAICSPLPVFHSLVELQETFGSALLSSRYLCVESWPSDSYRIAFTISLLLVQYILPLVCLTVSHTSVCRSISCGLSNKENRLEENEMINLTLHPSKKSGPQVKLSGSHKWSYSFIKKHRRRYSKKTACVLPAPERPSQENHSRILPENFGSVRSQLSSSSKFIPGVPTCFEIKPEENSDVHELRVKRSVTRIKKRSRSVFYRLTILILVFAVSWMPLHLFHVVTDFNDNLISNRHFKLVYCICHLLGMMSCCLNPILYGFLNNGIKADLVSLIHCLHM

[3] = biological target: Melanocortin receptor 4 (Mus musculus) (UniProt P56450); assay: Agonist activity at mouse MC4 receptor at 100 uM to 5 mM
Sequence of Melanocortin receptor 4 (Mus musculus) (P56450 whole entry): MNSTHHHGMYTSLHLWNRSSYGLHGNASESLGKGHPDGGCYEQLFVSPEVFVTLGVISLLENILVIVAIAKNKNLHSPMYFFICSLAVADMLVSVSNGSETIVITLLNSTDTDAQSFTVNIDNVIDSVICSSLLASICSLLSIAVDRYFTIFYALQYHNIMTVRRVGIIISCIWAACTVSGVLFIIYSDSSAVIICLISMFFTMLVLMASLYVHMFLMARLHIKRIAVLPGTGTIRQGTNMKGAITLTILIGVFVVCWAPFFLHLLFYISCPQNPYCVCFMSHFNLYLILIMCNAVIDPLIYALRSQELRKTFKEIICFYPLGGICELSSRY

[4] = biological target: T2, Adenosine receptor A3 (Homo sapiens) (UniProt P0DMS8); assay: Agonist activity at human A3 receptor at 100 uM to 5 mM
T2 sequence (whole entry): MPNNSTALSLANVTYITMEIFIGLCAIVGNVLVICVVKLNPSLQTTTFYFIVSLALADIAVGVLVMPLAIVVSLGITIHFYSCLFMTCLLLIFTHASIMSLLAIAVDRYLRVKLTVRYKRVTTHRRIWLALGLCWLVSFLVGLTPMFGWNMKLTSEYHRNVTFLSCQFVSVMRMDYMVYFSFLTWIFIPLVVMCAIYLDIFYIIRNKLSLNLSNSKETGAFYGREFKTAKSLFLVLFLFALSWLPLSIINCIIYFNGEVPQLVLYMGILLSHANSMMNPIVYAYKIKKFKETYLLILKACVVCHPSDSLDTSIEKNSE

[5] = biological target: Adenosine receptor A2a (Homo sapiens) (UniProt P29274); assay: Agonist activity at human A2a receptor at 100 uM to 5 mM
Sequence of Adenosine receptor A2a (Homo sapiens) (P29274 whole entry): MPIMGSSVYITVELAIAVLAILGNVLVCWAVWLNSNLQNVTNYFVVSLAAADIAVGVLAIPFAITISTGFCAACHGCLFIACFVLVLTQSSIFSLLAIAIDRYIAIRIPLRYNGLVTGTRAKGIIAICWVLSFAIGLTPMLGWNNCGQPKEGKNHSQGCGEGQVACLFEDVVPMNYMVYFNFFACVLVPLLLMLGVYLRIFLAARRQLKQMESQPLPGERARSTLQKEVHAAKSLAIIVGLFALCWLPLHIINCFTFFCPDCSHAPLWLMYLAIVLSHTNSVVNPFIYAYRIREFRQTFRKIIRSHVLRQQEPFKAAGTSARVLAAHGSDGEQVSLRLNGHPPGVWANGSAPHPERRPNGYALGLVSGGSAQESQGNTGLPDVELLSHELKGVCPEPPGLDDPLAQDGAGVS

[6] = biological target: Adrenocorticotropic hormone receptor (Mus musculus) (UniProt Q64326); assay: Agonist activity at mouse MC2 receptor at 100 uM to 5 mM
Sequence of Adrenocorticotropic hormone receptor (Mus musculus) (Q64326 whole entry): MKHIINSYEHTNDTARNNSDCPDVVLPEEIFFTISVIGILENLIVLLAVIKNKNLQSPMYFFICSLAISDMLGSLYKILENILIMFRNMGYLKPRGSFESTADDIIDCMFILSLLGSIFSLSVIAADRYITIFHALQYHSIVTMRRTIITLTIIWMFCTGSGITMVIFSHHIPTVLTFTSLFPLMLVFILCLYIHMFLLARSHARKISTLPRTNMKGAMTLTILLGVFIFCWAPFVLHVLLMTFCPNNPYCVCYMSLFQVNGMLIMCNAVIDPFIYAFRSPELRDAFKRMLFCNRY

[7] = biological target: Adrenocorticotropic hormone receptor (Homo sapiens) (UniProt Q01718); assay: Agonist activity at human MC2 receptor at 100 uM to 5 mM
Sequence of Adrenocorticotropic hormone receptor (Homo sapiens) (Q01718 whole entry): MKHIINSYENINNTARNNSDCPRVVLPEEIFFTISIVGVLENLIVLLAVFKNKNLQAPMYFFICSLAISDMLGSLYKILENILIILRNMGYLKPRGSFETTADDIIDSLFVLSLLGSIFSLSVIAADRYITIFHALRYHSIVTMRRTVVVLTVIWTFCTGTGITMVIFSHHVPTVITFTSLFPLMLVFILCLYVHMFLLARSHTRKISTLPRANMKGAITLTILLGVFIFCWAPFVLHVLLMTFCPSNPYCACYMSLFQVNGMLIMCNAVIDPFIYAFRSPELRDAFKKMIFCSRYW

[8] = biological target: Melanocortin receptor 3 (Mus musculus) (UniProt P33033); assay: Agonist activity at mouse MC3 receptor at 100 uM to 5 mM
Sequence of Melanocortin receptor 3 (Mus musculus) (P33033 whole entry): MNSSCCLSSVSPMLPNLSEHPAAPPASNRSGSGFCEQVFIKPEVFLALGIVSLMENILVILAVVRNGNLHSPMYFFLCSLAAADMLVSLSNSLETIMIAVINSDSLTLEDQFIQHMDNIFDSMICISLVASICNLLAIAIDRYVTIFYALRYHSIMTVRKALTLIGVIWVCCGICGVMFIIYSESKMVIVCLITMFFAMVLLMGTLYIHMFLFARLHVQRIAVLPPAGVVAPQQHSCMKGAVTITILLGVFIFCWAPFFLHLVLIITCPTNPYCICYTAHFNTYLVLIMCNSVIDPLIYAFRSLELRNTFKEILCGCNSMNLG

[9] = biological target: Melanocortin receptor 5 (Mus musculus) (UniProt P41149); assay: Agonist activity at mouse MC5 receptor at 100 uM to 5 mM
Sequence of Melanocortin receptor 5 (Mus musculus) (P41149 whole entry): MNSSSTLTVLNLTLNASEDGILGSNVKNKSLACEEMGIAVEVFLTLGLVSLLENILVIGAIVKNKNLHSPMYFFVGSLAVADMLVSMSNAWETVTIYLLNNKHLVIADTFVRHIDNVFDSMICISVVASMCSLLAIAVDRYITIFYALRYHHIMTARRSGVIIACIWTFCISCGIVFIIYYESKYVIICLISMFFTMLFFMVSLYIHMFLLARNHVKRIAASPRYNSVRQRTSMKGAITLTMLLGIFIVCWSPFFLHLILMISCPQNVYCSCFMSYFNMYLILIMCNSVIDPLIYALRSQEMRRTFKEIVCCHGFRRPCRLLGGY

[10] = biological target: T3, C5a anaphylatoxin chemotactic receptor 1 (Homo sapiens) (UniProt P21730); assay: Agonist activity at human C5a receptor at 100 uM to 5 mM
T3 sequence (whole entry): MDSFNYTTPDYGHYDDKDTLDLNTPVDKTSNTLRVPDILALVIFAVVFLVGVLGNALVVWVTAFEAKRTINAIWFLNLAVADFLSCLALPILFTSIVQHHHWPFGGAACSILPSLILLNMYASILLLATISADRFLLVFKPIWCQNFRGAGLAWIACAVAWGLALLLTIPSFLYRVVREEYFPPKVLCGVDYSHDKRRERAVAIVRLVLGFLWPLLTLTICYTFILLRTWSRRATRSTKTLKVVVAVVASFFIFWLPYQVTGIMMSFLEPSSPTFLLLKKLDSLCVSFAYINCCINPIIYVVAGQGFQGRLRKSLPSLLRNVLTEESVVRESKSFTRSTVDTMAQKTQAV

[11] = biological target: T4, Parathyroid hormone/parathyroid hormone-related peptide receptor (Homo sapiens) (UniProt Q03431); assay: Agonist activity at human PTH receptor at 100 uM to 5 mM
T4 sequence (whole entry): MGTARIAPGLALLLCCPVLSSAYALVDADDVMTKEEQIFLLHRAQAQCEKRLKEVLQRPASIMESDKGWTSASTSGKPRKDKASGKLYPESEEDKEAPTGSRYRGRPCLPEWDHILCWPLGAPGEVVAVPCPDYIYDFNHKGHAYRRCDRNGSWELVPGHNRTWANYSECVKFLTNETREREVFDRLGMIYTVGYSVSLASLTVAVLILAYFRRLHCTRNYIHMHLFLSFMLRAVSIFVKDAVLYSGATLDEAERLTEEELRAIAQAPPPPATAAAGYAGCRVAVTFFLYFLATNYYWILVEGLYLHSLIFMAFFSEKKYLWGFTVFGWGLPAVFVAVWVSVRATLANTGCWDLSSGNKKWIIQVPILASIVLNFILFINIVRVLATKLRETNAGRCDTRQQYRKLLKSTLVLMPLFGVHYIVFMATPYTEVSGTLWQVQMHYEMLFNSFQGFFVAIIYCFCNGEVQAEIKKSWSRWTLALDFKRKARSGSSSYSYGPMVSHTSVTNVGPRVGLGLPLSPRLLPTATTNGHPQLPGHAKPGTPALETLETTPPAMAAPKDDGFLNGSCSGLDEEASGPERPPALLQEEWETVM

[12] = biological target: T5, Orexin receptor type 2 (Homo sapiens) (UniProt O43614); assay: Agonist activity at human orexin 2 receptor at 100 uM to 5 mM
T5 sequence (whole entry): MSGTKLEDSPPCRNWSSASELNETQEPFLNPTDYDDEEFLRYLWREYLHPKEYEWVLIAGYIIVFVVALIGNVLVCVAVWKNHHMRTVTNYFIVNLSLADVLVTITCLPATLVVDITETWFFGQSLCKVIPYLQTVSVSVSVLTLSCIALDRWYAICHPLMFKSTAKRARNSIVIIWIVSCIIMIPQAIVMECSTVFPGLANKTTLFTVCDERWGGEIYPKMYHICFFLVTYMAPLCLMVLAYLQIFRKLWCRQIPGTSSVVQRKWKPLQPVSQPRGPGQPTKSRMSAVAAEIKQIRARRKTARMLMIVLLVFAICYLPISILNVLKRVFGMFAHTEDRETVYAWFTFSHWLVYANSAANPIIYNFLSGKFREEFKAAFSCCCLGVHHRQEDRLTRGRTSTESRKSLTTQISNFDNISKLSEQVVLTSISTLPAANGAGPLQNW

Measured: Activity

Sequence of D(1A) dopamine receptor (Homo sapiens) (P21728 whole entry): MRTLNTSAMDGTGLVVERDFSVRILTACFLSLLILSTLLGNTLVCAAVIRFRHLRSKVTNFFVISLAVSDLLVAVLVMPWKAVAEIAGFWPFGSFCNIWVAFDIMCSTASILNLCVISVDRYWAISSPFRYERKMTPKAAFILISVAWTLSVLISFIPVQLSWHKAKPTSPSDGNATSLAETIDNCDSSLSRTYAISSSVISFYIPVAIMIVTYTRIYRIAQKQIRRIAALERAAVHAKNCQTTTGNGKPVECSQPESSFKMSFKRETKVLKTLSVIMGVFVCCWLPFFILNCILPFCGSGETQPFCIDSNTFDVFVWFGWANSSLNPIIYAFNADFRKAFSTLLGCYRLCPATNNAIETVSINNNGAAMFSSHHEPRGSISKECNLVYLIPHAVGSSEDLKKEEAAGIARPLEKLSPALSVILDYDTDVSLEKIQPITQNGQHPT

COc1ccc(C2C=Cc3ccccc3O2)cc1O (racemic)
inactive: all assays above

COc1ccc(-c2oc3ccccc3c(=O)c2O)cc1O
inactive: all assays above

COc1cc(-c2oc3ccccc3c(=O)c2O)ccc1O
inactive: all assays above

O=c1c(OCCO)c(-c2cc(Br)ccc2F)oc2ccccc12
inactive: all assays above

O=c1cc(-c2ccc(Cl)cc2Cl)oc2ccccc12
inactive: all assays above

CCOC(=O)COc1c(-c2cc(Br)ccc2F)oc2ccccc2c1=O
inactive: all assays above

O=c1c(O)c(-c2cccc(Cl)c2F)oc2ccccc12
inactive: all assays above

O=c1c(O)c(-c2cc(Br)ccc2F)oc2ccccc12
inactive: all assays above

O=c1c(O)c(-c2cccc(Br)c2)oc2ccccc12
inactive: all assays above
